Results: patent US20040224892A1, “Oligosaccharides in cosmetic or dermatological compositions for stimulating adhesion of keratinocytes to major proteins of the dermoepidermal junction and restoration of epidermal cohesion” (Laboratoires de Biologie Vegetale Yves Rocher, a …, priority 2001, published 2004)

Columns and labels:
[1] = tested on: normal human keratinocytes on laminin V; assay: Adhesion of normal human keratinocytes on laminin V (colorimetric crystal violet adherence test); format: cell-based; conditions: manganese chloride 0.5 mM, 45 minutes
Method: The culture medium employed was the defined medium for keratinocyte culture 154 (+additive HKGS) manufactured by Cascade Inc. (USA) and marketed by Tebu (France) containing 0.2 mM of CaCl2, pH 7.2 to 7.4. The keratinocytes were obtained according to the technique described by Boyce and Ham (Boyce S T, Ham R G, J. Invest. Dermatol., 1983, 81, 33s-40s). Pieces of human skin obtain from human prepuces (circumcision) were treated in a manner to isolate their basal human keratinocytes. 3·10^4 live cells were then seeded per cm^2 on 25-cm^2 tissue culture dishes (Coming, Polylabo, France). The keratinocytes were cultured at 37° C. in an incubator with CO2 (5% of CO2, 95% of air and 98% humidity). The medium was changed every two days. Subculture took place when the cells reached subconfluence. The cell layer was then rinsed with PBS, then the cells were trypsinated using the conventional trypsination technique (Trypsin-EDTA (0.05-0.02%) at 37° C.). The cells were then seeded in 75-cm^2 culture dishes. Collagen IV (Becton Dickinson, France), fibronectin (Becton Dickinson, France) and laminin 5, purified in the laboratory (Pousselle P. et al., J. Cell. Biol., 1991, 114(3); 567-576) were used in our experiments. […] An absorbance reading was performed at 570 nm using an ELISA plate reader. […] We then calculated the means of the three absorbance values for each of the triplicates. […]

[2] = tested on: normal human keratinocytes on collagen IV; assay: Adhesion of normal human keratinocytes on collagen IV (colorimetric crystal violet adherence test); format: cell-based; conditions: manganese chloride 0.5 mM, 45 minutes
Method: The culture medium employed was the defined medium for keratinocyte culture 154 (+additive HKGS) manufactured by Cascade Inc. (USA) and marketed by Tebu (France) containing 0.2 mM of CaCl2, pH 7.2 to 7.4. The keratinocytes were obtained according to the technique described by Boyce and Ham (Boyce S T, Ham R G, J. Invest. Dermatol., 1983, 81, 33s-40s). Pieces of human skin obtain from human prepuces (circumcision) were treated in a manner to isolate their basal human keratinocytes. 3·10^4 live cells were then seeded per cm^2 on 25-cm^2 tissue culture dishes (Coming, Polylabo, France). The keratinocytes were cultured at 37° C. in an incubator with CO2 (5% of CO2, 95% of air and 98% humidity). The medium was changed every two days. Subculture took place when the cells reached subconfluence. The cell layer was then rinsed with PBS, then the cells were trypsinated using the conventional trypsination technique (Trypsin-EDTA (0.05-0.02%) at 37° C.). The cells were then seeded in 75-cm^2 culture dishes. Collagen IV (Becton Dickinson, France), fibronectin (Becton Dickinson, France) and laminin 5, purified in the laboratory (Pousselle P. et al., J. Cell. Biol., 1991, 114(3); 567-576) were used in our experiments. […] An absorbance reading was performed at 570 nm using an ELISA plate reader. […] We then calculated the means of the three absorbance values for each of the triplicates.

With Manganese chloride [MnCl2] as the substance, how does the “% adherence (cells alone = 100%)” value ([1]; Laminin 5 1.5 μg/ml) read?
The value was 109%.

What about the “% adherence (cells alone = 100%)” value ([1]; Laminin 5 3 μg/ml) of the same substance?
The value was 97%.

And the “% adherence (cells alone = 100%)” value ([2]; Collagen IV 10 μg/ml)?
The value was 280%.

What about the “% adherence (cells alone = 100%)” value ([2]; Collagen IV 20 μg/ml) of the same substance?
Its value is 357%.
